Values quoted from earlier work in patent US20210356455A1, “SCREENING AGENTS CAPABLE OF INHIBITING PAIN AND/OR PRURITUS AND METHODS AND COMPOSITIONS FOR TREATING PAIN AND/OR PRURITUS USING SAID AGENTS” (President and Fellows of Harvard College, priority 2020, published 2021).

Experiments:
[1] = molecular target: T1, Mrgprd (MAS Related GPR Family Member D) (Homo sapiens, UniProt Q8TDS7); settings: micromolar doses; cells expressing the receptor
[2] = molecular target: T1, Mrgprd (MAS Related GPR Family Member D); settings: cells expressing the receptor
[3] = molecular target: T2, Mrgpra3 (Mas-related G-protein coupled receptor member A3) (Mus musculus, UniProt Q91WW3)
T2 sequence (Q91WW3 1-302): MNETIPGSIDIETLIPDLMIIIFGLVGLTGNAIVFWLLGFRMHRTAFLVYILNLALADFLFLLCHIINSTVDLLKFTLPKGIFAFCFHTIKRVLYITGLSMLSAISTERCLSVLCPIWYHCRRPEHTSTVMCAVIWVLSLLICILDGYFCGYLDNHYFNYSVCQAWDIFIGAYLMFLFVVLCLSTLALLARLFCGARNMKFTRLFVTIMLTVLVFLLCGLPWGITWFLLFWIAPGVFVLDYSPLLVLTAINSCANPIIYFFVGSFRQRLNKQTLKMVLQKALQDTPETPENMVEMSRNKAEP

[4] = molecular target: Ntsr2 (Neurotensin Receptor 2) (Homo sapiens, UniProt O95665); settings: binding and pharmacological studies
Chain of Ntsr2 (Neurotensin Receptor 2) (O95665 whole entry, species assumed): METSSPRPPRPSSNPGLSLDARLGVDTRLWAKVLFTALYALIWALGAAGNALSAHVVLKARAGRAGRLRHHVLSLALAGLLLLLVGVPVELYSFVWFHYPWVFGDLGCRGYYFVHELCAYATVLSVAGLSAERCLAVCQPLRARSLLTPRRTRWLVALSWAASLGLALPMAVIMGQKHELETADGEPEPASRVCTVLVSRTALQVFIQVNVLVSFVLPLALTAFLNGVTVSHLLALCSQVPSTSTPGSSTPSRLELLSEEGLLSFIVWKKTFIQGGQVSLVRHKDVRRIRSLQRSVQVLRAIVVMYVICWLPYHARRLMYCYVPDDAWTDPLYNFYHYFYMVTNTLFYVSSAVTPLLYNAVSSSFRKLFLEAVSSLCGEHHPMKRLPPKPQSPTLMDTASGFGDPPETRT

T1 sequence (Q8TDS7 whole entry, species assumed): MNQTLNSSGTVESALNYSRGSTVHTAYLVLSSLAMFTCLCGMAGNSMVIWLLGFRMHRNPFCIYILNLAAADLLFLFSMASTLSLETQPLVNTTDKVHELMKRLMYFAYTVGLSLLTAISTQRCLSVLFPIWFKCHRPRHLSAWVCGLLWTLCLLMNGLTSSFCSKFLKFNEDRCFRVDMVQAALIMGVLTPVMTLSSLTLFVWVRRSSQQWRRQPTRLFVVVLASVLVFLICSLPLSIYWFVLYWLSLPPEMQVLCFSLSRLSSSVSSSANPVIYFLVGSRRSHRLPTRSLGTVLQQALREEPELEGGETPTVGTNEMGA

SMILES: NCCC(=O)O [Beta-alanine, beta-alanine]
- Ca(2+) influx [1]: specifically evoked Ca(2+) influx
- forskolin-stimulated cAMP production [2]: decreases forskolin-stimulated cAMP production

SMILES: CCN(CC)CCCC(C)Nc1ccnc2cc(Cl)ccc12 (stereo not shown) [chloroquine]
- receptor activation [3]: Activated

SMILES: C[C@@H]1CN([C@H]2CC[C@](C#N)(c3ccc(F)cc3)CC2)CC[C@]1(C(=O)O)c1ccccc1 [levocabastine]
- affinity for the receptor [4]: high affinity
